Results as given in US5990083A, “Multicatalytic protease inhibitors” (Cephalon, Inc., priority 1997, dated 1999).
Where “and” joins values, the source holds several entries; their conditions need not be identical. Identical values can stand only once.

Target: T1, human MCP (Homo sapiens, UniProt P28074+Q99436)
T1 construct: Samples of human liver and brain obtained post-mortem were used for isolation and partial purification of MCP; from tissue; host or cells: human liver and brain, post-mortem
Test: Determination of IC50 values for MCP inhibitors (chymotrypsin-like or trypsin-like activity of MCP)
Assay type: biochemical
Conditions: for % Inhibition (1 μM): 1 μM inhibitor
Description: Samples of human liver and brain obtained post-mortem were used for isolation and partial purification of MCP by ion-exchange chromatography, ammonium sulfate precipitation, and gel filtration (e.g., Driscoll and Goldberg, Proc. Natl. Acad. Sci. 86, 787-791 (1989); Yamamoto et al., Biochim, Biophys. Acta 882, 297-304 (1986). For either starting material, tissue was homogenized in 10 volumes of 20 mM Tris-HCl (pH 7.5) containing 20% glycerol. Following centrifugation at 40,000×g for 30 minutes, proteolytic activity of the chymotrypsin-like component of MCP could be detected in the supernatant (see below). The supernatant was fractionated on a DEAE-Sepharose Fast Flow column equilibrated in homogenization buffer. For each liter of supernatant, 250 ml of resin was used. Following sample loading, the column was washed with ^~ 10 volumes homogenization buffer, and proteins were eluted with a linear NaCl gradient of from 0 to 400 mM (21 for 250 ml resin). Fractions were assayed for MCP activity, and the active fractions were pooled and subjected to precipitation with (NH4)2 SO4 at 80% saturation. Precipitated proteins were collected by centrifugation, resuspended in homogenization buffer, and loaded on a Sephacryl S300HR column (500 ml resin volume) that had been standardized using bovine serum albumin (68 kDa). A single peak of MCP activity was eluted with a molecular weight of ^~ 650 kDa. This preparation was free of other measurable proteolytic activities and maintained its MCP activity upon storage at 4° C. for >6 months. This preparation was used for most of the experiments. Further fractionation of the preparation on an hydroxyapatite-Ultrogel column (Yamamoto et al., supra) yielded a more highly purified enzyme, which according to denaturing SDS-polyacrylamide gel electrophoresis was comprised of the expected >10 subunits ranging in Mr from 20 to 35 kDa.
The procedure for MPC isolation described above generated an enzyme complex whose proteolytic activities were latent, but which could be activated by addition of low concentrations (0.02-0.05%) of SDS (Yamamoto et al., supra). The chymotrypsin-like activity was assayed according to the following procedure: in 96 well microtiter plates, human MCP was diluted 4 to 10-fold in homogenization buffer containing 0.04% SDS. A calorimetric substrate MeOSuc-EVKM-para-nitroanilide (methoxysuccinyl-Glu-Val-Lys-Met-pNa), purchased from Bachem Bioscience Inc., King of Prussia, Pennsylvania was added to a final concentration of 100 μM from a stock solution of 10 mM in dimethylsulfoxide. Reaction volumes were 200 μl per well. After incubation for various periods of time at 37° C., the concentration of free pNa was determined on a Biotech EL-340 microplate reader, reading absorption at 490 nm. Protease activity was determined under conditions in which substrate hydrolysis increased linearly with time and the change in absorption was proportional to the concentration of free pNa. Alternatively, a fluorogenic substrate was used, methoxysuccinyl-Phe-Leu-Phe-amidomethylcoumarin (Enzyme Systems Products, Dublin, Calif.), and the change in fluorescence monitored at an excitation of 390 nm, and an emission at 460 nm.
The trypsin-like activity of human MCP was assayed as described above with the following modifications. Reactions were carried out in Tris-glycerol buffer (pH 9.5) supplemented with 1 mM 2-mercaptoethanol, and the substrate was a fluorogenic substrate, Benzyloxycarbonyl--Phe--Arg--AMC (100 μM).
After incubation for various periods of time at 37° C., the concentration of free AMC was determined on a Fluoroskan II spectrofluorimeter with an excitation filter of 390 nm and an emission filter of 460 nm. Protease activity was determined under conditions in which substrate hydrolysis increased linearly with time and the change in fluorescence was proportional to the concentration of free AMC. […]

[1] = Table 5, first series, enzyme incubated with inhibitor 15 minutes at 37° C. prior to substrate
[2] = Table 5, second series (Examples 36-38), enzyme incubated with inhibitor 15 minutes at 37° C. prior to substrate

| Compound | IC50 [1] | other results |
| --- | --- | --- |
| CC(C)CC(NC(=O)[C@H](CCCNC(N)=N[N+](=O)[O-])NC(=O)C(CCCCCCCCC#N)C1CCCC1)B1OC(C)(C)C(C)(C)O1 (stereo partly drawn) [Example 40, 10-Cyano-2-cyclopentyl-decanoyl-N^g-nitro-L-arginyl-boroleucine pinacol ester] |  | IC50 (Table 7): 6 nM; % Inhibition (1 μM) (Table 7): 100% |
| CC(C)C[C@H](NC(=O)[C@H](CCCNC(=N)N[N+](=O)[O-])NC(=O)C(CCCCCCCCC#N)C1CCCC1)C(=O)CCl (single isomer, unassigned; isomer b) [39 (Isomer b), 10-Cyano-2-cyclopentyl-decanoyl-N^g-nitro-L-arginyl-L-leucine chloromethylketone] |  | IC50 (Table 7): > 1000 nM; % Inhibition (1 μM) (Table 7, 1 µM): 21% |
| COC(=O)CCCCCCCC(=O)N[C@@H](CCCN=C(N)NS(=O)(=O)c1ccc(C)cc1)C(=O)N[C@H](C=O)CC(C)C [Compound 31, Monomethylazelayl-N^g -(p-toluenesulfonyl)-L-arginyl-L-leucinal] | 75 nM |  |
| CC(C)C[C@H](NC(=O)[C@H](CCCNC(=N)N[N+](=O)[O-])NC(=O)C(CCCCCCCCC#N)C1CCCC1)C(=O)CCl (single isomer, unassigned; isomer a) [39 (Isomer a), 10-Cyano-2-cyclopentyl-decanoyl-N^g-nitro-L-arginyl-L-leucine chloromethylketone] |  | IC50 (Table 7): > 1000 nM; % Inhibition (1 μM) (Table 7, 1 µM): 31% |
| COC(=O)CCCCCCCC(C(=O)N[C@@H](CCCNC(N)=N[N+](=O)[O-])C(=O)N[C@H](C=O)CC(C)C)C1CCCC1 (stereo partly drawn) [Compound 23, 9-Methoxycarbonyl-2-cyclopentyl-nonanoyl-N^g-nitro-L-arginyl-L-leucinal] | 5 nM |  |
| CCCC[C@@H](C=O)NC(=O)[C@H](CCCNC(=N)NS(=O)(=O)c1c(C)c(C)c2c(c1C)CCC(C)(C)O2)NC(=O)C(CCCCCCCC(=O)OC)C1CCCC1 (stereo partly drawn) [Compound 22, 9-Methoxycarbonyl-2-cyclopentyl-nonanoyl-N^g-(2,2,5,7,8-pentamethylchroman-6-sulfonyl)-L-arginyl-L-norleucinal] | 110 nM |  |
| CON=C[C@H](CC(C)C)NC(=O)[C@H](CCCN=C(N)N[N+](=O)[O-])NC(=O)C(CCCCCCCCC#N)C1CCCC1 (stereo partly drawn) [Compound 18, 10-cyano-2-cyclopentyl-decanoyl-N^g-nitro-L-arginyl-L-leucinal-O-methyloxime] | 700 nM |  |
| COC(=O)CCCCCCCC(=O)N[C@@H](CCCNC(N)=NS(=O)(=O)c1c(C)cc(C)cc1C)C(=O)N[C@H](C=O)CC(C)C [Compound 35, Methoxyazelayl-N^g-(2,4,6-trimethylbenzene-1-sulfonyl)-L-arginyl-L-leucinal] | 40 nM |  |
| CC(C)C[C@@H](C=O)NC(=O)[C@H](CCCNC(=N)N[N+](=O)[O-])NC(=O)c1ccc2ccccc2c1 [Compound 37, 2-Naphthoyl-N^g-nitro-L-arginyl-L-leucinal] |  | IC50 [2]: 250 nM |
| COC(=O)CCCCCCCC(=O)N[C@H](CCCNC(N)=NS(=O)(=O)c1c(C)c(C)c2c(c1C)CCC(C)(C)O2)C(=O)N[C@H](C=O)CC(C)C [Compound 29, Monomethylazelayl-N^g-(2,2,5,7,8-pentamethylchroman-6-sulfonyl)-D-arginyl-L-leucinal] | > 300 nM |  |
| COC(=O)CCCCCCCC(=O)N[C@@H](CCCN=C(N)N[N+](=O)[O-])C(=O)N[C@H](C=O)CC(C)C [Compound 26, Monomethylazelayl-N^g -nitro-L-arginyl-L-leucinal] | 40 nM |  |
| COC(=O)CCCCCCCC(C(=O)N[C@@H](CCCNC(N)=NS(=O)(=O)c1c(C)cc(OC)c(C)c1C)C(=O)N[C@H](C=O)CC(C)C)C1CCCC1 (stereo partly drawn) [Compound 21, 9-Methoxycarbonyl-2-cyclopentyl-nonanoyl-N^g-(4-methoxy-2,3,6-trimethyl-benzene-1-sulfonyl)-L-arginyl-L-leucinal] | 30 nM |  |
| CCCC[C@@H](C=O)NC(=O)[C@H](CCCN=C(N)NS(=O)(=O)c1c(C)c(C)c2c(c1C)CCC(C)(C)O2)NC(=O)CCCCCCCC(=O)OC [Compound 30, Monomethylazelayl-N^g-(2,2,5,7,8-pentamethylchroman-6-sulfonyl)-L-arginyl-L-norleucinal] | > 100 nM |  |
| N#CCCCCCCCCC(C(=O)N[C@@H](CCCNC(N)=N[N+](=O)[O-])C(=O)NC(Cc1ccccc1)C(=O)CF)C1CCCC1 (stereo partly drawn) [Example 42, 10-Cyano-2-cyclopentyl-decanoyl-N^g-nitro-L-arginyl-phenylalanine fluoromethylketone] |  | IC50 (Table 7): > 1000 nM; % Inhibition (1 μM) (Table 7): 15% |
| CCNC(=O)C(=O)[C@H](CC(C)C)NC(=O)[C@H](CCCNC(N)=N[N+](=O)[O-])NC(=O)C(CCCCCCCCC#N)C1CCCC1 (single isomer, unassigned; isomer a) [41 (Isomer a), 10-Cyano-2-Cyclopentyl-decanoyl-N^g-nitro-L-arginyl-L-leucine alpha-ketoethylamide] |  | IC50 (Table 7): 22 nM; % Inhibition (1 μM) (Table 7, 1 µM): 99% |
| COC(=O)CCCCCCCC(=O)N[C@@H](CCCNC(N)=NS(=O)(=O)c1c(C)cc(OC)c(C)c1C)C(=O)N[C@H](C=NNC(N)=O)CC(C)C [Compound 32, Monomethylazelayl-N^g-(4-methoxy,2,3,6-trimethyl-1-sulfonyl)-L-arginyl-L-leucinal semicarbazone] | 220 nM |  |
| Cc1c(C)c(S(=O)(=O)NC(N)=NCCC[C@H](NS(=O)(=O)CCCCCCC#N)C(=O)N[C@H](C=O)CC(C)C)c(C)c2c1OC(C)(C)CC2 [Compound 36, 6-Cyano-hexane-1-sulfonyl-N^g-(2,2,5,7,8-pentamethylchroman-6-sulfonyl)-L-arginyl-L-leucinal] |  | IC50 [2]: > 100 nM |
| Cc1c(C)c(S(=O)(=O)NC(=N)NCCC[C@H](NC(=O)C(CCCCCCCCC#N)C2CCCC2)C(=O)N[C@H](C=O)CC(C)C)c(C)c2c1OC(C)(C)CC2 (stereo partly drawn) [Compound 15, 10-Cyano-2-cyclopentyl-decanoyl-N^g-(2,2,5,7,8-pentamethylchroman-6-sulfonyl)-L-arginyl-L-leucinal] | 20 nM |  |
| CC(C)C[C@@H](C=O)NC(=O)[C@H](CCCNC(=N)N[N+](=O)[O-])NC(=O)C(CCCCCCCCNS(=O)(=O)C(F)(F)F)C1CCCC1 (stereo partly drawn) [Compound 25, 10-(trifluoromethanesulfonyl)amino-2-cyclopentyl-decanoyl-N^g-nitro-L-arginyl-L-leucinal] | 8 nM and 5 nM |  |
| Monomethylazelayl-N^g -nitro-L-arginyl-L-phenylalaninal [Compound 27] | 130 nM |  |
| COC(=O)CCCCCCCC(=O)N[C@@H](CCCNC(N)=NS(=O)(=O)c1c(C)cc(OC)c(C)c1C)C(=O)N[C@H](C=NNC(N)=S)CC(C)C [Compound 33, Monomethylazelayl-N^g-(4-methoxy,2,3,6-trimethyl-1-sulfonyl)-L-arginyl-L-leucinal thiosemicarbazone] | 700 nM |  |
| COC(=O)CCCCCCCC(=O)N[C@@H](CCCNC(=N)NS(=O)(=O)c1c(C)c(C)c2c(c1C)CCC(C)(C)O2)C(=O)N[C@H](C=O)CC(C)C [Compound 28, Monomethylazelayl-N^g-(2,2,5,7,8-pentamethylchroman-6-sulfonyl)-L-arginyl-L-leucinal] | 20 nM |  |
